The structures appear in SMILES notation. Where “and” joins values, the source holds several entries; their conditions need not be identical. Equal entries are not always repeated.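 Tested at 5 concentrations; 48 h exposure; 96-well plates; endpoints linearly interpolated, else capped at highest concentration. The concentration for 50% growth inhibition is given as GI50. TGI denotes the concentration required for complete inhibition of growth.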

Experimental findings from PubChem BioAssay (NCI) are described below.

Some test systems named below: SK-MEL-28 melanoma; SK-OV-3 ovarian; OVCAR-4 ovarian; HOP-92 NSCLC; M14 melanoma; DU-145 prostate; SK-MEL-5 melanoma; MOLT-4 leukemia; MCF7 breast; HT29 colon; U251 CNS; PC-3 prostate; NCI-H522 lung; A549 NSCLC; MALME-3M melanoma; OVCAR-3 ovarian; T-47D breast; UACC-257 melanoma; K-562 leukemia; MDA-MB-468 breast; RPMI-8226 leukemia; LOX IMVI melanoma; HOP-62 NSCLC; A498 renal; CCRF-CEM leukemia; SW-620 colon; SNB-75 CNS; OVCAR-8 ovarian; HL-60(TB) leukemia; CAKI-1 renal; BT-549 breast; SK-MEL-2 melanoma; UO-31 renal; COLO 205 colon; TK-10 renal; HCT-15 colon; HS 578T breast; SF-268 CNS; SN12C renal; HCT-116 colon; ACHN renal; OVCAR-5 ovarian; KM12 colon; SNB-19 CNS; NCI-H23 lung; SF-295 CNS; SR leukemia; IGROV1 ovarian; SF-539 CNS; RXF 393 renal; 786-0 renal; MDA-MB-435; UACC-62 melanoma; HCC-2998 colon; NCI/ADR-RES ovarian; NCI-H460 lung; MDA-MB-231 breast; NCI-H226 lung; EKVX NSCLC.

Common to all, as to test: NCI tumour cell line growth inhibition, 48 h

On to `COc1ccc(C(=O)/C=C/c2ccc(OC)c(OCc3ccccc3)c2)cc1OC`, for which the GI50 in the assay with SK-MEL-28 melanoma was 21.4 µM; in the assay with SK-OV-3 ovarian, 8.23 µM; in the assay with OVCAR-4 ovarian it was 5.2 µM; with HOP-92 NSCLC, 4.67 µM; with M14 melanoma it was 9.79 µM; with DU-145 prostate, 3.83 µM. Further, the GI50 in the assay with SK-MEL-5 melanoma was 11.7 µM; in the assay with MOLT-4 leukemia it was 2.7 µM; with MCF7 breast it was 2.64 µM; in the assay on HT29 colon it was 4 µM; with U251 CNS, 3.02 µM; with PC-3 prostate it was 4.99 µM. Also, the GI50 in the assay on NCI-H522 lung is 3.18 µM; in the assay on A549 NSCLC, 3.11 µM; in the assay on MALME-3M melanoma it was 25.1 µM; in the assay on OVCAR-3 ovarian it was 2.96 µM; with T-47D breast, 2.8 µM; with UACC-257 melanoma, 6.57 µM. Moreover, the GI50 is 2.86 µM with K-562 leukemia; 2.94 µM with MDA-MB-468 breast; 2.64 µM with RPMI-8226 leukemia; 2.66 µM with LOX IMVI melanoma; 3.37 µM in the assay on HOP-62 NSCLC; 17.5 µM in the assay on A498 renal. In addition, the GI50 with CCRF-CEM leukemia was 3.22 µM; in the assay with SW-620 colon it was 3.04 µM; with SNB-75 CNS, 1.59 µM; in the assay with OVCAR-8 ovarian, 3.25 µM; in the assay on HL-60(TB) leukemia it was 5.06 µM; in the assay on CAKI-1 renal, 9.93 µM. The GI50 with BT-549 breast is 2.55 µM; with SK-MEL-2 melanoma, 14.4 µM; in the assay with UO-31 renal it was 2.89 µM; in the assay on COLO 205 colon, 4.33 µM; in the assay on TK-10 renal, 4.87 µM; in the assay with HCT-15 colon it was 2.69 µM. The GI50 in the assay with HS 578T breast was 7.71 µM; with SF-268 CNS, 8.91 µM; in the assay with SN12C renal, 2.89 µM; with HCT-116 colon, 3.35 µM; in the assay with ACHN renal it was 6.86 µM; with OVCAR-5 ovarian, 2.97 µM. For the same molecule, the GI50 in the assay on KM12 colon is 3.93 µM; with SNB-19 CNS it was 3.46 µM; in the assay with NCI-H23 lung it was 4.39 µM; in the assay with SF-295 CNS it was 5.43 µM; with SR leukemia it was 2.06 µM; in the assay with IGROV1 ovarian, 3.42 µM. In addition, the GI50 is 2.04 µM with SF-539 CNS; 4.61 µM with RXF 393 renal; 4.13 µM in the assay with 786-0 renal; 3.47 µM in the assay with MDA-MB-435; 3.81 µM in the assay on UACC-62 melanoma; 3.39 µM with HCC-2998 colon. Also, the GI50 in the assay with NCI/ADR-RES ovarian was 3 µM; in the assay with NCI-H460 lung, 3.67 µM; in the assay with MDA-MB-231 breast it was 4.11 µM; in the assay with NCI-H226 lung, 6.35 µM; in the assay on EKVX NSCLC, 13.4 µM. The TGI in the assay on SK-MEL-28 melanoma was above 100 µM; in the assay on SK-OV-3 ovarian it was above 100 µM; in the assay on OVCAR-4 ovarian it was 61.5 µM; with HOP-92 NSCLC, above 100 µM; in the assay with M14 melanoma, above 100 µM; in the assay with DU-145 prostate it was above 100 µM. Further, the TGI in the assay on SK-MEL-5 melanoma is 27.5 µM; in the assay on MOLT-4 leukemia it was 8.73 µM; with MCF7 breast, above 100 µM; in the assay with HT29 colon, above 100 µM; in the assay with U251 CNS, above 100 µM; with PC-3 prostate, above 100 µM. Further, the TGI in the assay on NCI-H522 lung was 26 µM; with A549 NSCLC it was above 100 µM; in the assay with MALME-3M melanoma, above 100 µM; in the assay with OVCAR-3 ovarian, 19.6 µM; in the assay on T-47D breast, 80.6 µM; with UACC-257 melanoma, above 100 µM. For the same molecule, the TGI in the assay on K-562 leukemia is above 100 µM; in the assay on MDA-MB-468 breast, 19.6 µM; in the assay with RPMI-8226 leukemia, above 100 µM; in the assay on LOX IMVI melanoma it was above 100 µM; in the assay on HOP-62 NSCLC it was 82.6 µM; in the assay with A498 renal, 61.4 µM. The TGI is above 100 µM with CCRF-CEM leukemia; above 100 µM with SW-620 colon; 7.21 µM in the assay with SNB-75 CNS; above 100 µM with OVCAR-8 ovarian; 24.8 µM in the assay with HL-60(TB) leukemia; above 100 µM with CAKI-1 renal. In addition, the TGI with BT-549 breast was 8.42 µM; in the assay with SK-MEL-2 melanoma, 60.1 µM; in the assay with UO-31 renal, above 100 µM; in the assay with COLO 205 colon, 38 µM; in the assay with TK-10 renal, above 100 µM; in the assay on HCT-15 colon, above 100 µM. The TGI in the assay with HS 578T breast is 53.5 µM; in the assay on SF-268 CNS, 70.9 µM; with SN12C renal it was above 100 µM; with HCT-116 colon, above 100 µM; with ACHN renal, above 100 µM; in the assay with OVCAR-5 ovarian, above 100 µM. Further, the TGI with KM12 colon was 38.6 µM; with SNB-19 CNS, above 100 µM; with NCI-H23 lung it was 43.6 µM; in the assay with SF-295 CNS it was above 100 µM; in the assay on SR leukemia, 8.61 µM; in the assay on IGROV1 ovarian it was above 100 µM. The TGI in the assay with SF-539 CNS is 4.65 µM; in the assay with RXF 393 renal it was above 100 µM; with 786-0 renal, above 100 µM; in the assay with MDA-MB-435 it was above 100 µM; with UACC-62 melanoma, 33.9 µM; in the assay on HCC-2998 colon, above 100 µM. The TGI with NCI/ADR-RES ovarian was above 100 µM; in the assay with NCI-H460 lung it was 20.3 µM; in the assay with MDA-MB-231 breast, above 100 µM; with NCI-H226 lung it was 95.9 µM; in the assay with EKVX NSCLC, above 100 µM.

Consider `CCN(Cc1ccc(F)cc1)c1ccc(CO)c(F)c1`, for which, in the assay on MDA-MB-468 breast, the GI50 was 0.167 µM and the TGI was 0.461 µM.

As for `Cc1cc(O)c(C2=NN(c3ccc(S(N)(=O)=O)cc3)C(c3ccccc3Cl)C2)cc1Cl` (configuration not stated), in the assay on MDA-MB-468 breast, the GI50 is 2.22 µM and the TGI amounted to 4.74 µM.

With `O=S(=O)(Nc1ccc(Br)c(Cl)c1)c1ccc(-c2cnc(C3CC3)o2)cc1`, in the assay with MDA-MB-468 breast, the GI50 is 0.263 µM and the TGI came to 2.86 µM.

With `CCn1cnc(C[C@H](NC(=O)[C@@H](NC(=O)Nc2cc(C(F)(F)F)cc(C(F)(F)F)c2)C(C)C)C(=O)OC)c1`, in the assay on MDA-MB-468 breast, the GI50 was 1.74 µM and the TGI worked out at 3.57 µM.

For the molecule `COC1=CC(c2ccc[nH]2)=N/C1=C\c1[nH]c(C)c(C(=O)CCCCC(=O)NC(C)(C)C)c1C`, in the assay with MDA-MB-468 breast, the GI50 is 1.52 µM and the TGI turned out to be 3.58 µM.

On to `CC(=O)OC[C@]12CC[C@@H](C(=O)CBr)[C@@H]1[C@H]1CC[C@@H]3[C@@]4(C)CCCNC(C)(C)[C@@H]4CC[C@@]3(C)[C@]1(C)CC2`, for which, in the assay with MDA-MB-468 breast, the GI50 was 2.12 µM and the TGI came to 5.66 µM.

`CCCCC[C@H]1C/C=C2/C(=O)C=C[C@@H]2C/C=C\CCCC(=O)O[C@@H](CCCCC)C/C=C2/C(=O)C=C[C@@H]2C/C=C\CCCC(=O)O1`: in the assay with MDA-MB-468 breast, the GI50 was 0.371 µM and the TGI turned out to be 1.01 µM.

As for `COc1ccc(-c2nc(/C=N/Nc3cc(C)nc4ccc(Cl)cc34)c(C)o2)cc1`, in the assay with MDA-MB-468 breast, the GI50 was 1.93 µM and the TGI turned out to be 3.71 µM.

On to `C=CC1CN2CCC1CC2C(O)c1ccnc2ccc(OC)cc12` (configuration not stated), for which, in the assay on MDA-MB-468 breast, the GI50 was above 100 µM and the TGI is above 100 µM.

As to `COc1ccc2c(c1)nnn1c3ncccc3c(N=O)c21`, the GI50 in the assay with MDA-MB-468 breast was 0.0323 µM and 0.126 µM.
